# Data taken from US7514443B2, “Substituted pyrazolo[1,5-a]pyrimidines as inhibitors of metabotropic glutamate receptors” (Hoffmann-La Roche Inc., priority 2003, dated 2009).
row,melting point,Compound
1,250 °C,"CCOc1ccc(-c2cc(C(F)(F)F)n3ncc(-c4ccnc(C)c4)c3n2)cc1C(F)(F)F [Example 4.44, 5-(4-Ethoxy-3-trifluoromethyl-phenyl)-3-(2-methyl-pyridin-4-yl)-7-trifluoromethyl-pyrazolo[1,5-a]pyrimidine]"
2,190 °C,"Fc1ccc(-c2cc(C(F)(F)F)n3ncc(-c4cccnc4)c3n2)cc1Cl [Example 4.6, 5-(3-Chloro-4-fluoro-phenyl)-3-pyridin-3-yl-7-trifluoromethyl-pyrazolo[1,5-a]pyrimidine]"
3,223 °C,"Cc1cc(-c2cnn3c(C(F)(F)F)cc(-c4ccc(C(F)(F)F)c(C(F)(F)F)c4)nc23)ccn1 [Example 4.54, 5-(3,4-Bis-trifluoromethyl-phenyl)-3-(2-methyl-pyridin-4-yl)-7-trifluoromethyl-pyrazolo[1,5-a]pyrimidine]"
4,197 °C,"Fc1ccc(-c2cc(C(F)(F)F)n3ncc(-c4ccccn4)c3n2)cc1Cl [Example 4.8, 5-(3-Chloro-4-fluoro-phenyl)-3-pyridin-2-yl-7-trifluoromethyl-pyrazolo[1,5-a]pyrimidine]"
5,180 °C,"N#Cc1cnn2c(C(F)(F)F)cc(-c3ccc(Cl)cc3Cl)nc12 [Example 1.4, 5-(2,4-Dichloro-phenyl)-7-trifluoromethyl-pyrazolo[1,5-a]pyrimidine-3-carbonitrile]"
6,229 °C,"Cc1cc(-c2cnn3c(C(F)(F)F)cc(-c4ccc(OCC(F)(F)F)c(C(F)(F)F)c4)nc23)cc(C)n1 [Example 4.45, 5-[4-(2,2,2-Trifluoroethoxy)-3-trifluoromethyl-phenyl]-3-(2,6-dimethyl-pyridin-4-yl)-7-trifluoromethyl-pyrazolo[1,5-a]pyrimidine]"
7,247 °C,"Cc1cc(-c2cc(C(F)(F)F)n3ncc(-c4ccncc4)c3n2)ccc1Cl [Example 4.4, 5-(4-Chloro-3-methyl-phenyl)-3-pyridin-4-yl-7-trifluoromethyl-pyrazolo[1,5-a]pyrimidine]"
8,271 °C,"Cc1cc(-c2cnn3c(C(F)(F)F)cc(-c4ccc(F)c(Cl)c4)nc23)cc(C)n1 [Example 4.21, 5-(3-Chloro-4-fluoro-phenyl)-3-(2,6-dimethyl-pyridin-4-yl)-7-trifluoromethyl-pyrazolo[1,5-a]pyrimidine]"
9,231 °C,"Cc1cc(-c2cc(C(F)(F)F)n3ncc(-c4ccnc(CO)c4)c3n2)ccc1C(F)(F)F [Example 6.2, 5-(3-Methyl-4-trifluoromethyl-phenyl)-3-(2-hydroxymethyl-pyridin-4-yl)-7-trifluoromethyl-pyrazolo[1,5-a]pyrimidine]"
10,256 °C,"Cc1cc(-c2cnn3c(C(F)(F)F)cc(-c4ccc(Cl)cc4)nc23)cc(C)n1 [Example 4.19, 5-(4-Chloro-phenyl)-3-(2,6-dimethyl-pyridin-4-yl)-7-trifluoromethyl-pyrazolo[1,5-a]pyrimidine]"
11,257 °C,"Cc1cc(-c2cnn3c(C(F)(F)F)cc(-c4ccc(C(F)(F)F)cc4)nc23)cc(C)n1 [Example 4.23, 5-(4-Trifluoromethyl-phenyl)-3-(2,6-dimethyl-pyridin-4-yl)-7-trifluoromethyl-pyrazolo[1,5-a]pyrimidine]"
12,162 °C,"Fc1cc(-c2cc(C(F)(F)F)n3ncc(-c4cccnc4)c3n2)ccc1C(F)(F)F [Example 4.18, 5-(3-Fluoro-4-trifluoromethyl-phenyl)-3-pyridin-3-yl-7-trifluoromethyl-pyrazolo[1,5-a]pyrimidine]"
13,244 °C,"COc1ccc(-c2cc(C(F)(F)F)n3ncc(-c4ccncc4)c3n2)cc1 [Example 4.58, 5-(4-Methoxy-phenyl)-3-pyridin-4-yl-7-trifluoromethyl-pyrazolo[1,5-a]pyrimidine]"
14,251 °C,"CCOc1cc(-c2cc(C(F)(F)F)n3ncc(-c4ccncc4)c3n2)ccc1C(F)(F)F [Example 4.47, 5-(3-Ethoxy-4-trifluoromethyl-phenyl)-3-pyridin-4-yl-7-trifluoromethyl-pyrazolo[1,5-a]pyrimidine]"
15,246 °C,"Cc1cc(-c2ncn3c(C(F)(F)F)cc(-c4ccc(Cl)c(C)c4)nc23)ccn1 [Example 8.21, 2-(4-Chloro-3-methyl-phenyl)-8-(2-methyl-pyridin-4-yl)-4-trifluoromethyl-imidazo[1,5-a]pyrimidine]"
16,241 °C,"FC(F)(F)c1cccc(-c2cc(C(F)(F)F)n3ncc(-c4ccncc4)c3n2)c1 [Example 4.16, 5-(3-Trifluoromethyl-phenyl)-3-pyridin-4-yl-7-trifluoromethyl-pyrazolo[1,5-a]pyrimidine]"
17,221 °C,"Cc1cc(-c2cnn3c(C(F)F)cc(-c4ccc(C(F)(F)F)c(C)c4)nc23)ccn1 [Example 9.4, 7-Difluoromethyl-3-(2-methyl-pyridin-4-yl)-5-(3-methyl-4-trifluoromethyl-phenyl)-pyrazolo[1,5-a]pyrimidine]"
18,274 °C,"FC(F)(F)c1cc(-c2ccc(Cl)cc2)nc2c(-c3ccncc3)cnn12 [Example 4.2, 5-(4-Chloro-phenyl)-3-pyridin-4-yl-7-trifluoromethyl-pyrazolo[1,5-a]pyrimidine]"
19,226 °C,"CCOc1cc(-c2cc(C(F)(F)F)n3ncc(-c4ccnc(C)c4)c3n2)ccc1C(F)(F)F [Example 4.49, 5-(3-Ethoxy-4-trifluoromethyl-phenyl)-3-(2-methyl-pyridin-4-yl)-7-trifluoromethyl-pyrazolo[1,5-a]pyrimidine]"
20,232 °C,"Cc1cc(-c2cnn3c(C(F)(F)F)cc(-c4cccc(C(F)(F)F)c4)nc23)ccn1 [Example 4.34, 5-(3-Trifluoromethyl-phenyl)-3-(2-methyl-pyridin-4-yl)-7-trifluoromethyl-pyrazolo[1,5-a]pyrimidine]"
21,188 °C,"Fc1ccc(-c2cc(C(F)(F)F)n3cnc(-c4cccnc4)c3n2)cc1Cl [Example 8.3, 2-(3-Chloro-4-fluoro-phenyl)-8-pyridin-3-yl-4-trifluoromethyl-imidazo[1,5-a]pyrimidine]"
22,266 °C,"Fc1ccc(-c2cc(C(F)(F)F)n3cnc(-c4ccncc4)c3n2)cc1Cl [Example 8.11, 2-(3-Chloro-4-fluoro-phenyl)-8-pyridin-4-yl-4-trifluoromethyl-imidazo[1,5-a]pyrimidine]"

# Further lines, the molecule ahead of its results:
row,Compound,melting point
1,"FC(F)(F)c1ccc(-c2cc(C(F)(F)F)n3cnc(-c4cccnc4)c3n2)cc1 [Example 8.6, 8-Pyridin-3-yl-4-trifluoromethyl-2-(4-trifluoromethyl-phenyl)-imidazo[1,5-a]pyrimidine]",231 °C
2,"CCOc1ccc(-c2cc(C(F)(F)F)n3cnc(-c4ccncc4)c3n2)cc1C(F)(F)F [Example 8.17, 2-(4-Ethoxy-3-trifluoromethyl-phenyl)-8-pyridin-4-yl-4-trifluoromethyl-imidazo[1,5-a]pyrimidine]",244 °C
3,"N#Cc1cnn2c(C(F)(F)F)cc(-c3ccc(C(F)(F)F)c(F)c3)nc12 [Example 1.17, 5-(3-Fluoro-4-trifluoromethyl-phenyl)-7-trifluoromethyl-pyrazolo[1,5-a]pyrimidine-3-carbonitrile]",184 °C
4,"Cc1cc(-c2cc(C(F)(F)F)n3cnc(-c4cccnc4)c3n2)ccc1C(F)(F)F [Example 8.8, 2-(3-Methyl-4-trifluoromethyl-phenyl)-8-pyridin-3-yl-4-trifluoromethyl-imidazo[1,5-a]pyrimidine]",173 °C
5,"Cc1cccc(-c2cc(C(F)(F)F)n3cnc(C#N)c3n2)c1 [Example 5.9, 2-(3-Methyl-phenyl)-4-trifluoromethyl-imidazo[1,5-a]pyrimidine-8-carbonitrile]",202 °C
6,"FC(F)(F)c1cc(-c2ccc(Cl)cc2)nc2c(-c3ccncc3)ncn12 [Example 8.9, 2-(4-Chloro-phenyl)-8-pyridin-4-yl-4-trifluoromethyl-imidazo[1,5-a]pyrimidine]",290 °C
7,"FC(F)(F)c1ccc(-c2cc(C(F)(F)F)n3ncc(-c4ccccn4)c3n2)cc1 [Example 4.12, 5-(4-Trifluoromethyl-phenyl)-3-pyridin-2-yl-7-trifluoromethyl-pyrazolo[1,5-a]pyrimidine]",202 °C
8,"FC(F)(F)COc1cc(-c2cc(C(F)(F)F)n3ncc(-c4ccncc4)c3n2)ccc1C(F)(F)F [Example 4.50, 3-Pyridin-4-yl-5-[3-(2,2,2-trifluoro-ethoxy)-4-trifluoromethyl-phenyl]-7-trifluoromethyl-pyrazolo[1,5-a]pyrimidine]",251 °C
9,"COc1ccc(-c2cc(C(F)F)n3ncc(-c4ccncc4)c3n2)cc1 [Example 9.5, 7-Difluoromethyl-5-(4-methoxy-phenyl)-3-pyridin-4-yl-pyrazolo[1,5-a]pyrimidine]",206 °C
10,"FC(F)(F)c1cccc(-c2cc(C(F)(F)F)n3cnc(-c4cccnc4)c3n2)c1 [Example 8.5, 8-Pyridin-3-yl-4-trifluoromethyl-2-(3-trifluoromethyl-phenyl)-imidazo[1,5-a]pyrimidine]",194 °C
11,"N#Cc1ncn2c(C(F)(F)F)cc(-c3ccccc3)nc12 [Example 5.1, 2-Phenyl-4-trifluoromethyl-imidazo[1,5-a]pyrimidine-8-carbonitrile]",202 °C
12,"Cc1ccc(-c2cc(C(F)(F)F)n3cnc(C#N)c3n2)cc1 [Example 5.4, 2-(4-Methyl-phenyl)-4-trifluoromethyl-imidazo[1,5-a]pyrimidine-8-carbonitrile]",197 °C
13,"Cc1ccc(-c2cc(C(F)(F)F)n3cnc(-c4cccnc4)c3n2)cc1C(F)(F)F [Example 8.7, 2-(4-Methyl-3-trifluoromethyl-phenyl)-8-pyridin-3-yl-4-trifluoromethyl-imidazo[1,5-a]pyrimidine]",236 °C
14,"N#Cc1ncn2c(C(F)(F)F)cc(-c3ccc(OCC(F)(F)F)c(C(F)(F)F)c3)nc12 [Example 5.24, 2-(4-Trifluoroethoxy-3-trifluoromethyl-phenyl)-4-trifluoromethyl-imidazo[1,5-a]pyrimidine-8-carbonitrile]",189 °C
15,"N#Cc1ncn2c(C(F)(F)F)cc(-c3cccc(C(F)(F)F)c3)nc12 [Example 5.11, 2-(3-Trifluoromethyl-phenyl)-4-trifluoromethyl-imidazo[1,5-a]pyrimidine-8-carbonitrile]",202 °C
